# Data published in paper PMC6413339 (EBioMedicine, 2019).
# Read-outs that look alike come from different tables or passages of the source.
# Assays:
# Src = target: T1, Src (Homo sapiens, UniProt P12931); assay: Cell-free kinase assay (Reaction Biology, ADP-Glo); assay type: biochemical; conditions: inhibitor 500 nM; 100 μM ATP; average of duplicate
# T1 construct: purchased Invitrogen PR4336E
# Method: (§1) Cell-free kinase activity assays were performed at Reaction Biology Corporation. Briefly, kinases were incubated with substrates, 100 μM ATP and a 3-fold serial dilution of compounds starting at 1 μM. DMSO was used as control. […] Experiments were performed in duplicates. The concentrations of kinases and substrates used in the assays are indicated on Table S1. Kinase activity was quantified using the ADP-Glo™ Kinase Assay System (Promega, Madison, WI) following the manufacturer's recommendations.
# FLT3 = target: T2, FLT3 (Homo sapiens, UniProt P36888); assay: Cell-free kinase assay, single dose (Reaction Biology, ADP-Glo); assay type: biochemical; conditions: inhibitor 500 nM; 100 μM ATP; average of duplicate
# T2 construct: purchased Invitrogen PV3182
# T2 sequence (P36888 564-993 limits assumed): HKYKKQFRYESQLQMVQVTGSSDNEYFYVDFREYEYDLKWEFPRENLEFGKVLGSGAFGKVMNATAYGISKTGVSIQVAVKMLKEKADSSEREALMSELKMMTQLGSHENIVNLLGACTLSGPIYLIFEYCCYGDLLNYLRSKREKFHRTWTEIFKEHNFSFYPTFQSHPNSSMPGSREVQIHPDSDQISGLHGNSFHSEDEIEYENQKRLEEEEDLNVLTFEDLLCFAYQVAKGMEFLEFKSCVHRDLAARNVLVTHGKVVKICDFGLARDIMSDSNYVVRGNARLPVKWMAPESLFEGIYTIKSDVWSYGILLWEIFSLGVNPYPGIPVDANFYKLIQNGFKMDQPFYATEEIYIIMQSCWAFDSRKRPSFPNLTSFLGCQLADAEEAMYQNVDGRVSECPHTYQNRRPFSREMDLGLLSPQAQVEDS
# Method: as §1, with “Briefly, kinases were incubated with substrates, 100 μM ATP and a 3-fold serial dilution of compounds starting at 1 μM.” left out
# MOLM-14 cells = assay: Antiproliferative activity (CellTitre-Blue, 72 h); assay type: cell-based, human; conditions: 72 h incubation, triplicates, read-out: IC50 (mean ±SD, nM) MOLM-14
# Method: (§2) Cells were seeded into 96-well tissue culture-treated plates at 2.0 × 10^4 cells/mL for up to 24 h. DMSO stock solutions of compounds were serially diluted first in DMSO and subsequently into RPMI before being added to the cell cultures in triplicates, with 10 μM being the highest tested concentration. The plates were incubated for 72 h as above. The CellTitre-Blue assay (Promega, Madison WI) was then added to the cultures and incubated a further 4 h before the fluorescence measured following the manufacturers recommendations. The fluorescence data from compounds were normalized to that DMSO and the resulting data fitted to a non-linear regression equation to obtain IC50 using GraphPad Prism 5.0 Software (La Jolla, CA, USA).
# [1] = test system: MOLM-14 (ITD, F691 L) cells; assay: Antiproliferative activity (CellTitre-Blue, 72 h); assay type: cell-based, human
# Method: as §2
# MV4–11 cells = assay: Antiproliferative activity (CellTitre-Blue, 72 h); assay type: cell-based, human; conditions: for IC50: 72 h incubation, triplicates, read-out: IC50 (mean ±SD, nM) MV4–11
# Method: as §2
# [2] = test system: MOLM-14 (ITD, D835Y) cells; assay: Antiproliferative activity (CellTitre-Blue, 72 h); assay type: cell-based, human; conditions: 72 h incubation, triplicates, read-out: IC50 (mean ±SD, nM) MOLM-14 (ITD, D835Y)
# Method: as §2
# MV4–11-luc cells = assay: In vivo efficacy, orthotopic human AML model; conditions: 25 mg/kg i.p. three times a week (MWF); NSG or NRG mice
# Method: The in vivo efficacy of compounds was assessed in an orthotopic human AML model in NSG (NOD scid gamma, NOD-scid IL2Rg^null) mice that were bred at University of Maryland Baltimore (mating pairs acquired from Jackson Laboratories; Maine). […]. Three days later, engraftment was assessed by imaging on a Xenogen IVIS-2 Imaging System (Alameda) after an intraperitoneal (IP) injection of 150 mg/kg luciferin. Mice were sorted into four or five groups (n = 5) so that mean intensity (i.e., disease burden) was equal. Dosing started on day of sorting. Compounds were dissolved in 85% PBS (pH 7.4) buffer containing 10% DMSO and 5% Cremophore. The vehicle (buffer without compounds) was used as control. Mice were injected 3 to 5 days per week via IP injection. Mice were weighed on day of dosing and imaged once per week. […]. All mice were housed in a 12-h light/dark cycle with access to food and water ad libitum. Studies were performed with Institutional Animal Care and Use Committee (UMB and Purdue University) approval.
# […]. Female mice were dosed daily for 5 days via intraperitoneal injection and then monitored for an additional week for weight loss, a sign of toxicity in mice. […] To evaluate the anti-leukemic efficacy in vivo, six-week-old female NSG or NRG mice were injected intravenously with FLT3-ITD expressing acute myeloid leukemia cells (MV4–11), expressing luciferase. […] Dosing (i.p) with the compounds was then started. The mice were dosed with 25 mg/kg of the compounds three times a week (MWF). […] […].
# [3] = Homo sapiens, MOLM-14, 72 h, 72 h incubation, triplicates, read-out: IC50 (mean ±SD, nM) MOLM-14 (ITD, F691 L)
# T1 sequence (P12931 whole entry): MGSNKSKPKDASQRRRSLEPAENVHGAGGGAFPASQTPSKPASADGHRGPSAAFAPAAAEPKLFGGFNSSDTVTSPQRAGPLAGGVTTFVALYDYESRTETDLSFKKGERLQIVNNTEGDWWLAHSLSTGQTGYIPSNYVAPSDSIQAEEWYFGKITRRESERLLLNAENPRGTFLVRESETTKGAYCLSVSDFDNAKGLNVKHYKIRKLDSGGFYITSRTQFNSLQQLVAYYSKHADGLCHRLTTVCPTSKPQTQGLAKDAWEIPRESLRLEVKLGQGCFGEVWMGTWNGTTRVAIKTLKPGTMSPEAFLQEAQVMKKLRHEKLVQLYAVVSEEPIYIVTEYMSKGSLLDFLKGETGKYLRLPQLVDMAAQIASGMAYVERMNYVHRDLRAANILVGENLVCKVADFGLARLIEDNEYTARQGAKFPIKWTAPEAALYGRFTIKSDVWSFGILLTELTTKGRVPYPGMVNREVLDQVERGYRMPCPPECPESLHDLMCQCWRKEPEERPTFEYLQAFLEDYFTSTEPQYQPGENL
inhibition at 0.5 µM (Src) [%],inhibition at 0.5 µM (FLT3) [%],"IC50 (MOLM-14 cells; Homo sapiens, MOLM-14) [nM]","IC50 [1, 3] [nM]","IC50 ([2]; Homo sapiens, MOLM-14, 72 h) [nM]",SMILES,other results
99,96,–,–,–,Cc1ccc(C(=O)Nc2ccc(CN3CCN(C)CC3)c(C(F)(F)F)c2)cc1C#Cc1cccnc1N [Compound 1],–
99,99,–,–,–,Cc1ccc(C(=O)Nc2ccc(CN3CCN(C)CC3)c(C(F)(F)F)c2)cc1C#Cc1ccc(N)nc1 [Compound 2],–
99,81,–,–,–,Cc1ccc(C(=O)Nc2ccc(CN3CCN(C)CC3)c(C(F)(F)F)c2)cc1C#Cc1nc(Br)cnc1N [Compound 3],–
100,93,–,–,–,Cc1ccc(C(=O)Nc2ccc(CN3CCN(C)CC3)c(C(F)(F)F)c2)cc1C#Cc1c(N)ncc2ccccc12 [Compound 4],–
99,90,–,–,–,Cc1ccc(C(=O)Nc2ccc(CN3CCN(C)CC3)c(C(F)(F)F)c2)cc1C#Cc1c(N)ncc2ccc(F)cc12 [Compound 6],–
98,98,2.3 ± 0.1,6.9 ± 0.05,10.4 ± 0.3,Cc1ncc(C(=O)Nc2ccc(CN3CCN(C)CC3)c(C(F)(F)F)c2)cc1C#Cc1c(N)ncc2ccc(Cl)cc12 [Compound 9],"IC50 (MV4–11 cells): 0.4 ± 0.04 nM; IC50 (MV4–11 cells; Homo sapiens, MV4-11, 72 h): ~0.5 nM"
93,75,–,–,–,Cc1cnc(C(=O)Nc2ccc(CN3CCN(C)CC3)c(C(F)(F)F)c2)cc1C#Cc1c(N)ncc2ccc(Cl)cc12 [Compound 10],–
16,43,–,≤ 15,≤ 15,Cc1ccc(C(=O)Nc2ccc(CN3CCN(C)CC3)c(C(F)(F)F)c2)nc1C#Cc1c(N)ncc2ccc(Cl)cc12 [Compound 11],–
100,98,–,–,–,Cc1ccc2cnc(N)c(C#Cc3cc(C(=O)Nc4ccc(CN5CCN(C)CC5)c(C(F)(F)F)c4)ccc3C)c2c1 [Compound 12],–
98,100,1.4 ± 0.03,1.1 ± 0.04,4.7 ± 0.03,Cc1ccc2cnc(N)c(C#Cc3cc(C(=O)Nc4ccc(CN5CCN(C)CC5)c(C(F)(F)F)c4)cnc3C)c2c1 [Compound 13],"IC50 (MV4–11 cells; Homo sapiens, MV4-11, 72 h): 0.4 ± 0.006 nM"
99,98,–,–,–,COc1ccc2c(N)ncc(C#Cc3cc(C(=O)Nc4ccc(CN5CCN(C)CC5)c(C(F)(F)F)c4)cnc3C)c2c1 [Compound 14],–
100,98,–,–,–,Cc1ncc(C(=O)Nc2ccc(CN3CCN(C)CC3)c(C(F)(F)F)c2)cc1C#Cc1cnc(N)c2ccccc12 [Compound 16],–
98,98,–,–,–,Cc1ncc(C(=O)Nc2ccc(CN3CCN(C)CC3)c(C(F)(F)F)c2)cc1C#Cc1cnc(N)c2ccc(F)cc12 [Compound 17],–
–,–,–,–,–,COc1ccc2cnc(N)c(C#Cc3cc(C(=O)Nc4ccc(CN5CCN(C)CC5)c(C(F)(F)F)c4)cnc3C)c2c1 [Compound 18],"%Src inhibition (Src): 98%; %FLT3 inhibition (FLT3): 97%; IC50 (MOLM-14 cells): 0.2 ± 0.002 nM; IC50 ([1]; 72 h incubation, triplicates, read-out: IC50 (mean ±SD, nM) MOLM-14 (ITD, F691 L)): 1.1 ± 0.04 nM; IC50 ([1]; Table S2, superscript g, the values are: IC50): 1.1 nM; IC50 (MV4–11 cells): 0.2 ± 0.001 nM; IC50 MV4-11 (MV4–11 cells; Table S2, superscript d, the values are: IC50): 0.2 nM; IC50 [2]: 11.1 ± 0.08 nM"
20,80,–,–,–,Cc1ncc(C(=O)Nc2ccc(CN3CCN(C)CC3)c(C(F)(F)F)c2)cc1C#Cc1cnc(NC2CC2)c2ncccc12 [Compound 21],–
100,98,–,–,–,Cc1ccc(C(=O)Nc2ccc(CN3CCN(C)CC3)c(C(F)(F)F)c2)cc1C#Cc1cncc2ccccc12 [Compound 22],–
99,99,–,–,–,Cc1ccc(C(=O)Nc2ccc(CN3CCN(C)CC3)c(C(F)(F)F)c2)cc1C#Cc1cncc2ncccc12 [Compound 23],–
98,100,0.2 ± 0.01,1.8 ± 0.08,3 ± 0.3,Cc1ncc(C(=O)Nc2ccc(CN3CCN(C)CC3)c(C(F)(F)F)c2)cc1C#Cc1cncc2ncccc12 [Compound 24],"IC50 (MV4–11 cells; Homo sapiens, MV4-11, 72 h): 0.2 ± 0.009 nM"
–,99,4.5 ± 0.8,15.6 ± 0.4,6.6 ± 0.03,"CC1(COc2ccc3c(c2)ncn3-c2ccc3cccc(N4CCC(N)CC4)c3n2)COC1 [Crenolanib, reference compound]","IC50 (MV4–11 cells; Homo sapiens, MV4-11, 72 h): 3.1 ± 0.06 nM"
–,–,16.1 ± 0.02,–,–,"CO[C@@H]1[C@H](N(C)C(=O)c2ccccc2)C[C@H]2O[C@]1(C)n1c3ccccc3c3c4c(c5c6ccccc6n2c5c31)C(=O)NC4 [Midostaurin, reference compound]",–
–,–,0.5 ± 0.02,48.5 ± 0.6,23 ± 0.5,"CC(C)(C)c1cc(NC(=O)Nc2ccc(-c3cn4c(n3)sc3cc(OCCN5CCOCC5)ccc34)cc2)no1 [Quizartinib, reference compound]","IC50 (MV4–11 cells; Homo sapiens, MV4-11, 72 h): 0.4 ± 0.02 nM"

SMILES,inhibition at 0.5 µM (Src) [%],inhibition at 0.5 µM (FLT3) [%],"IC50 (MOLM-14 cells; Homo sapiens, MOLM-14) [nM]","IC50 [1, 3] [nM]","IC50 ([2]; Homo sapiens, MOLM-14, 72 h) [nM]",other results
Cc1ncc(C(=O)Nc2ccc(CN3CCN(C)CC3)c(C(F)(F)F)c2)cc1C#Cc1c(N)ncc2ccccc12 [Compound 5],100,99,2.8 ± 0.02,1.5 ± 0.1,13 ± 0.4,"IC50 (MV4–11 cells; Homo sapiens, MV4-11, 72 h): 0.4 ± 0.004 nM; reduction in leukemia burden (MV4–11-luc cells): > 99%"
Cc1ccc(C(=O)Nc2ccc(CN3CCN(C)CC3)c(C(F)(F)F)c2)cc1C#Cc1c(N)ncc2ccc(Cl)cc12 [Compound 8],–,97,–,–,–,"IC50 (MV4–11 cells; Homo sapiens, MV4-11, 72 h): ~0.5 nM"
Cc1ccc(C(=O)Nc2ccc(CN3CCN(C)CC3)c(C(F)(F)F)c2)cc1C#Cc1cnc(N)c2ccccc12 [Compound 15],97,100,–,≤ 15,≤ 15,–
Cc1ccc(C(=O)Nc2ccc(CN3CCN(C)CC3)c(C(F)(F)F)c2)cc1C#Cc1cnc(N)c2ncccc12 [Compound 19],98,99,–,–,–,–
"Cc1ccc(C(=O)Nc2ccc(CN3CCN(C)CC3)c(C(F)(F)F)c2)cc1C#Cc1cnc2cccnn12 [Ponatinib, reference compound]",–,–,0.5 ± 0.1,–,–,"IC50 ([1]; Homo sapiens, MOLM-14, 72 h incubation, triplicates, read-out: IC50 (mean ±SD, nM) MOLM-14 (ITD, F691 L)): 6.8 ± 0.03 nM; IC50 (MV4–11 cells; Homo sapiens, MV4-11): 0.1 ± 0.001 nM; IC50 ([2]; Homo sapiens, MOLM-14): 52.6 ± 0.3 nM"
